Source: paper PMC8762706, “Design of Coibamide A Mimetics with Improved Cellular Bioactivity” (ACS Medicinal Chemistry Letters, 2021)
Where a SMILES comes first, the peptide text is derived from it. Bridges are numbered along the chain shown (N, C = ends). [ ]: non-standard residue; d: D form. The star is where a group is joined. Phe(4-CF3) = N[C@@H](Cc1ccc(C(F)(F)F)cc1)C(=O)O; Bip = N[C@@H](Cc1ccc(-c2ccccc2)cc1)C(=O)O; Phe(4-CN) = N#Cc1ccc(C[C@H](N)C(=O)O)cc1; Phe(4-Cl) = N[C@@H](Cc1ccc(Cl)cc1)C(=O)O; 1Nal = N[C@@H](Cc1cccc2ccccc12)C(=O)O; NMe2Val = CC(C)[C@@H](C(=O)*)N(C)C; NMeLys(Me) = CNCCCC[C@H](NC)C(=O)O; NMeI = CC[C@H](C)[C@H](NC)C(=O)O; NMeT = CN[C@H](C(=O)O)[C@@H](C)O; NMeL = CN[C@@H](CC(C)C)C(=O)O; dNMeK = CN[C@H](CCCCN)C(=O)O; dHiv = CC(C)[C@@H](O)C(=O)O; NMeS = CN[C@@H](CO)C(=O)O; NMeA = CN[C@@H](C)C(=O)O; dNMeA = CN[C@H](C)C(=O)O; CF3 = FC(F)(F)*

Test system: A549 cells
Experiment: Growth inhibition assay (MTS) in A549 cells
Format: cell-based
Details: for IC50: read-out: IC50 (concentration for 50% growth inhibition of A549 cells), MTS assay, 72 h treatment, 0.5% DMSO, absorbance 490 nm, n = 3
Protocol: Growth Inhibition AssayS3
A549 cells were cultured in Dulbecco’s modified Eagle’s medium (DMEM; Sigma) supplemented with 10% (v/v) fetal bovine serum at 37 °C in a 5% CO2-incubator. Growth inhibition assays using A549 cells were performed in 96-well plates (BD Falcon). A549 cells were seeded at 1000 cells/well in 90 μL of culture media, respectively, and were cultured for 24 h. Chemical compounds in DMSO were diluted 50-fold with the culture medium in advance. 30 μL of the chemical diluents were added.
The final volume of DMSO in the medium was equal to 0.5% (v/v). The cells under chemical treatment were incubated for a further 72 h. The wells in the plates were washed twice with the cultured medium without phenol-red. After 1-hour incubation with 100 μL of the medium, the cell culture in each well was supplemented with 20 μL of the MTS reagent (Promega), followed by incubation for additional 40 min. Absorbance at 490 nm of each well was measured using a Wallac 1420 ARVO SX multilabel counter (Perkin Elmer). Three experiments were performed per condition and the averages of inhibition rates in each condition were evaluated to determine IC50 values using the GraphPad Prism software.

Compound: CC[C@H](C)[C@H]1C(=O)N[C@@H](C)C(=O)N(C)[C@@H](CC(C)C)C(=O)N[C@@H](Cc2ccc(OC)cc2)C(=O)N(C)CCC[C@H](N(C)C(=O)[C@H](CC(C)C)N(C)C(=O)[C@H](C)N(C)C(=O)[C@H](OC(=O)[C@H](C(C)C)N(C)C)C(C)C)C(=O)N(C)[C@@H](C)C(=O)N1C [2c]
- IC50: 9.6 ± 3.2 µM

Compound: CC[C@H](C)[C@H]1C(=O)N[C@@H](C)C(=O)N(C)[C@@H](CC(C)C)C(=O)N[C@@H](Cc2cccc3ccccc23)C(=O)N(C)CCCC[C@H](N(C)C(=O)[C@H](CC(C)C)N(C)C(=O)[C@H](C)N(C)C(=O)[C@H](OC(=O)[C@H](C(C)C)N(C)C)C(C)C)C(=O)N(C)[C@@H](C)C(=O)N1C [10p] (NMe2Val-[dHiv][NMeA][NMeL][NMeLys(Me)][NMeA][NMeI]A[NMeL][1Nal]; lactam 4-C)
- IC50: 4.8 ± 0.5 µM

Compound: CC[C@H](C)[C@H]1C(=O)N[C@@H](C)C(=O)N(C)[C@@H](CC(C)C)C(=O)N[C@@H](Cc2ccc(OC)cc2)C(=O)NCCCC[C@@H](N(C)C(=O)[C@H](CC(C)C)N(C)C(=O)[C@H](C)N(C)C(=O)[C@H](OC(=O)[C@H](C(C)C)N(C)C)C(C)C)C(=O)N(C)[C@@H](C)C(=O)N1C [2f] (NMe2Val-[dHiv][NMeA][NMeL][dNMeK][NMeA][NMeI]A[NMeL]Y(Me); lactam 4-C)
- IC50: > 10 µM

Compound: CC[C@H](C)[C@H]1C(=O)N[C@@H](C)C(=O)N(C)[C@@H](CC(C)C)C(=O)N[C@@H](Cc2ccc(C#N)cc2)C(=O)N(C)CCCC[C@H](N(C)C(=O)[C@H](CC(C)C)N(C)C(=O)[C@H](C)N(C)C(=O)[C@H](OC(=O)[C@H](C(C)C)N(C)C)C(C)C)C(=O)N(C)[C@@H](C)C(=O)N1C [10d] (NMe2Val-[dHiv][NMeA][NMeL][NMeLys(Me)][NMeA][NMeI]A[NMeL][Phe(4-CN)]; lactam 4-C)
- IC50: 1.5 ± 0.5 µM

Compound: CC[C@H](C)[C@H]1C(=O)N[C@@H](C)C(=O)N(C)[C@@H](CC(C)C)C(=O)N[C@@H](Cc2ccc(OC(F)(F)F)cc2)C(=O)N(C)CCCC[C@H](N(C)C(=O)[C@H](CC(C)C)N(C)C(=O)[C@H](C)N(C)C(=O)[C@H](OC(=O)[C@H](C(C)C)N(C)C)C(C)C)C(=O)N(C)[C@@H](C)C(=O)N1C [10i] (NMe2Val-[dHiv][NMeA][NMeL][NMeLys(Me)][NMeA][NMeI]A[NMeL]Y(CF3); lactam 4-C)
- IC50: 0.32 ± 0.03 µM

Compound: CC[C@H](C)[C@H]1C(=O)N[C@@H](C)C(=O)N(C)[C@@H](CC(C)C)C(=O)N[C@@H](Cc2ccc(Cl)cc2)C(=O)N(C)CCCC[C@H](N(C)C(=O)[C@H](CC(C)C)N(C)C(=O)[C@H](C)N(C)C(=O)[C@H](OC(=O)[C@H](C(C)C)N(C)C)C(C)C)C(=O)N(C)[C@@H](C)C(=O)N1C [10f] (NMe2Val-[dHiv][NMeA][NMeL][NMeLys(Me)][NMeA][NMeI]A[NMeL][Phe(4-Cl)]; lactam 4-C)
- IC50: 0.71 ± 0.19 µM

Compound: CC[C@H](C)[C@H]1C(=O)N[C@@H](C)C(=O)N(C)[C@@H](CC(C)C)C(=O)N[C@@H](Cc2ccc(-c3ccccc3)cc2)C(=O)N(C)[C@H](C)C(=O)O[C@H](C)[C@H](N(C)C(=O)[C@H](CC(C)C)N(C)C(=O)[C@H](COC)N(C)C(=O)[C@H](OC(=O)[C@H](C(C)C)N(C)C)C(C)C)C(=O)N(C)[C@@H](COC)C(=O)N1C [compound 11, [Bph^10]-CbA] (NMe2Val-[dHiv][NMeS](Me)[NMeL][NMeT][NMeS](Me)[NMeI]A[NMeL][Bip][dNMeA]; ester 4-C)
- fold more potent cytotoxicity than 1 (coibamide A) (ratio of IC50 values to 1): 12 fold

Compound: CC[C@H](C)[C@H]1C(=O)N[C@@H](C)C(=O)N(C)[C@@H](CC(C)C)C(=O)N[C@@H](Cc2ccc(C(F)(F)F)cc2)C(=O)N(C)CCCC[C@H](N(C)C(=O)[C@H](CC(C)C)N(C)C(=O)[C@H](C)N(C)C(=O)[C@H](OC(=O)[C@H](C(C)C)N(C)C)C(C)C)C(=O)N(C)[C@@H](C)C(=O)N1C [10c] (NMe2Val-[dHiv][NMeA][NMeL][NMeLys(Me)][NMeA][NMeI]A[NMeL][Phe(4-CF3)]; lactam 4-C)
- IC50: 0.37 ± 0.07 µM
